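Grown in 96-well plates, cells were treated for 48 hours with each compound at five concentrations. Insufficient inhibition: endpoint recorded as highest concentration tested. GI50 is the concentration that inhibits growth by half. TGI: concentration producing complete growth inhibition.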
What was measured:
Test in all cases: DTP human tumour cell line panel, 48 h
LOX IMVI melanoma = tested on: LOX IMVI melanoma
MOLT-4 leukemia = tested on: MOLT-4 leukemia
RPMI-8226 leukemia = tested on: RPMI-8226 leukemia
A549 NSCLC = tested on: A549 NSCLC
K-562 leukemia = tested on: K-562 leukemia
HL-60(TB) leukemia = tested on: HL-60(TB) leukemia
OVCAR-4 ovarian = tested on: OVCAR-4 ovarian
HOP-92 NSCLC = tested on: HOP-92 NSCLC
SF-539 CNS = tested on: SF-539 CNS
SNB-75 CNS = tested on: SNB-75 CNS
NCI-H460 lung = tested on: NCI-H460 lung
SR leukemia = tested on: SR leukemia
BT-549 breast = tested on: BT-549 breast
CAKI-1 renal = tested on: CAKI-1 renal
CCRF-CEM leukemia = tested on: CCRF-CEM leukemia
OVCAR-3 ovarian = tested on: OVCAR-3 ovarian
MALME-3M melanoma = tested on: MALME-3M melanoma
T-47D breast = tested on: T-47D breast
A498 renal = tested on: A498 renal
MDA-MB-435 = tested on: MDA-MB-435
OVCAR-8 ovarian = tested on: OVCAR-8 ovarian
HT29 colon = tested on: HT29 colon
SN12C renal = tested on: SN12C renal
SK-MEL-28 melanoma = tested on: SK-MEL-28 melanoma
HCT-15 colon = tested on: HCT-15 colon
NCI-H23 lung = tested on: NCI-H23 lung
OVCAR-5 ovarian = tested on: OVCAR-5 ovarian
MCF7 breast = tested on: MCF7 breast
HOP-62 NSCLC = tested on: HOP-62 NSCLC
SF-268 CNS = tested on: SF-268 CNS
SF-295 CNS = tested on: SF-295 CNS
NCI-H226 lung = tested on: NCI-H226 lung
HS 578T breast = tested on: HS 578T breast
NCI-H522 lung = tested on: NCI-H522 lung
SK-OV-3 ovarian = tested on: SK-OV-3 ovarian
NCI/ADR-RES ovarian = tested on: NCI/ADR-RES ovarian
786-0 renal = tested on: 786-0 renal
KM12 colon = tested on: KM12 colon
HCT-116 colon = tested on: HCT-116 colon
COLO 205 colon = tested on: COLO 205 colon
UACC-62 melanoma = tested on: UACC-62 melanoma
HCC-2998 colon = tested on: HCC-2998 colon
U251 CNS = tested on: U251 CNS
DU-145 prostate = tested on: DU-145 prostate
IGROV1 ovarian = tested on: IGROV1 ovarian
RXF 393 renal = tested on: RXF 393 renal
PC-3 prostate = tested on: PC-3 prostate
SK-MEL-5 melanoma = tested on: SK-MEL-5 melanoma
M14 melanoma = tested on: M14 melanoma
MDA-MB-231 breast = tested on: MDA-MB-231 breast
UACC-257 melanoma = tested on: UACC-257 melanoma
SK-MEL-2 melanoma = tested on: SK-MEL-2 melanoma
UO-31 renal = tested on: UO-31 renal
ACHN renal = tested on: ACHN renal
SNB-19 CNS = tested on: SNB-19 CNS
SW-620 colon = tested on: SW-620 colon

## O=C1Nc2ccccc2/C1=C/C(=N/c1nnc(-c2ccc(Cl)cc2)s1)c1ccccc1
LOX IMVI melanoma
  GI50: 1540 nM
  TGI: 3130 nM
MOLT-4 leukemia
  GI50: 2270 nM
  TGI: 6010 nM
RPMI-8226 leukemia
  GI50: 2070 nM
  TGI: 5400 nM
A549 NSCLC
  GI50: 7780 nM
  TGI: 23800 nM
K-562 leukemia
  GI50: 1750 nM
  TGI: 11400 nM
HL-60(TB) leukemia
  GI50: 1780 nM
  TGI: 5540 nM
OVCAR-4 ovarian
  GI50: 2560 nM
  TGI: 12200 nM
HOP-92 NSCLC
  GI50: 969 nM
  TGI: 3030 nM
SF-539 CNS
  GI50: 1810 nM
  TGI: 4080 nM
SNB-75 CNS
  GI50: 2530 nM
  TGI: 13700 nM
NCI-H460 lung
  GI50: 5950 nM
  TGI: 21900 nM
SR leukemia
  GI50: 964 nM
  TGI: 6050 nM
BT-549 breast
  GI50: 1790 nM
  TGI: 3660 nM
CAKI-1 renal
  GI50: 1430 nM
  TGI: 4920 nM
CCRF-CEM leukemia
  GI50: 1160 nM
  TGI: 4280 nM
OVCAR-3 ovarian
  GI50: 1260 nM
  TGI: 2660 nM
MALME-3M melanoma
  GI50: 2070 nM
  TGI: 6180 nM
T-47D breast
  GI50: 2310 nM
  TGI: 10200 nM
A498 renal
  GI50: 9030 nM
  TGI: 26100 nM
MDA-MB-435
  GI50: 2550 nM
  TGI: 7230 nM
OVCAR-8 ovarian
  GI50: 2810 nM
  TGI: 10100 nM
HT29 colon
  GI50: 1940 nM
  TGI: 5610 nM
SN12C renal
  GI50: 2160 nM
  TGI: 5970 nM
SK-MEL-28 melanoma
  GI50: 2360 nM
  TGI: 5590 nM
HCT-15 colon
  GI50: 1400 nM
  TGI: 3280 nM
NCI-H23 lung
  GI50: 2960 nM
  TGI: 11200 nM
OVCAR-5 ovarian
  GI50: 1810 nM
  TGI: 4860 nM
MCF7 breast
  GI50: 2360 nM
  TGI: 10800 nM
HOP-62 NSCLC
  GI50: 7160 nM
  TGI: 21500 nM
SF-268 CNS
  GI50: 4250 nM
  TGI: 16300 nM
SF-295 CNS
  GI50: 11600 nM
  TGI: 25600 nM
NCI-H226 lung
  GI50: 3190 nM
  TGI: 13400 nM
HS 578T breast
  GI50: 3250 nM
  TGI: 16000 nM
NCI-H522 lung
  GI50: 518 nM
  TGI: 1210 nM
SK-OV-3 ovarian
  GI50: 5860 nM
  TGI: 17400 nM
NCI/ADR-RES ovarian
  GI50: 3310 nM
  TGI: 12200 nM
786-0 renal
  GI50: 1720 nM
  TGI: 3400 nM
KM12 colon
  GI50: 4850 nM
  TGI: 15600 nM
HCT-116 colon
  GI50: 1060 nM
  TGI: 2380 nM
COLO 205 colon
  GI50: 1770 nM
  TGI: 3400 nM
UACC-62 melanoma
  GI50: 1930 nM
  TGI: 4580 nM
HCC-2998 colon
  GI50: 8110 nM
  TGI: 20900 nM
U251 CNS
  GI50: 4040 nM
  TGI: 15500 nM
DU-145 prostate
  GI50: 2520 nM
  TGI: 6900 nM
IGROV1 ovarian
  GI50: 2100 nM
  TGI: 5590 nM
RXF 393 renal
  GI50: 1500 nM
  TGI: 3070 nM
PC-3 prostate
  GI50: 1930 nM
  TGI: 5880 nM
SK-MEL-5 melanoma
  GI50: 12600 nM
  TGI: 26900 nM
M14 melanoma
  GI50: 2370 nM
  TGI: 6280 nM
MDA-MB-231 breast
  GI50: 2140 nM
  TGI: 6210 nM
UACC-257 melanoma
  GI50: 2820 nM
  TGI: 8640 nM
SK-MEL-2 melanoma
  GI50: 3210 nM
  TGI: 9320 nM
UO-31 renal
  GI50: 1400 nM
  TGI: 3480 nM
ACHN renal
  GI50: 1410 nM
  TGI: 2830 nM
SNB-19 CNS
  GI50: 12600 nM
  TGI: 25400 nM
SW-620 colon
  GI50: 1210 nM
  TGI: 2820 nM

## O=C1/C(=C/c2ccc(Cl)cc2Cl)CN(S(=O)(=O)c2ccccc2)C/C1=C\c1ccc(Cl)cc1Cl
LOX IMVI melanoma
  GI50: 193 nM
  TGI: 395 nM
MOLT-4 leukemia
  GI50: 460 nM
  TGI: 12000 nM
RPMI-8226 leukemia
  GI50: 196 nM
  TGI: 562 nM
A549 NSCLC
  GI50: 316 nM
  TGI: 1510 nM
K-562 leukemia
  GI50: 326 nM
  TGI: > 38300 nM
HL-60(TB) leukemia
  GI50: 731 nM
  TGI: > 19900 nM
OVCAR-4 ovarian
  GI50: 291 nM
  TGI: > 96000 nM
HOP-92 NSCLC
  GI50: 1700 nM
  TGI: 5550 nM
SF-539 CNS
  GI50: 315 nM
  TGI: 1130 nM
SNB-75 CNS
  GI50: 473 nM
  TGI: 8200 nM
NCI-H460 lung
  GI50: 224 nM
  TGI: 498 nM
SR leukemia
  GI50: 198 nM
  TGI: 925 nM
BT-549 breast
  GI50: 617 nM
  TGI: 2640 nM
CAKI-1 renal
  GI50: 817 nM
  TGI: 4220 nM
CCRF-CEM leukemia
  GI50: 291 nM
  TGI: 1300 nM
OVCAR-3 ovarian
  GI50: 259 nM
  TGI: 620 nM
MALME-3M melanoma
  GI50: 7200 nM
  TGI: > 100000 nM
T-47D breast
  GI50: 594 nM
A498 renal
  GI50: 1500 nM
  TGI: 8760 nM
MDA-MB-435
  GI50: 701 nM
  TGI: 2890 nM
OVCAR-8 ovarian
  GI50: 313 nM
HT29 colon
  GI50: 301 nM
  TGI: 907 nM
SN12C renal
  GI50: 288 nM
  TGI: 1100 nM
SK-MEL-28 melanoma
  GI50: 8290 nM
  TGI: > 100000 nM
HCT-15 colon
  GI50: 226 nM
  TGI: 614 nM
NCI-H23 lung
  GI50: 381 nM
  TGI: 2400 nM
OVCAR-5 ovarian
  GI50: 1020 nM
  TGI: 4650 nM
MCF7 breast
  GI50: 292 nM
  TGI: > 100000 nM
HOP-62 NSCLC
  GI50: 343 nM
SF-268 CNS
  GI50: 385 nM
  TGI: > 35700 nM
SF-295 CNS
  GI50: 279 nM
  TGI: 1990 nM
NCI-H226 lung
  GI50: 513 nM
  TGI: 1350 nM
HS 578T breast
  GI50: 322 nM
  TGI: 3870 nM
NCI-H522 lung
  GI50: 1130 nM
  TGI: 3930 nM
SK-OV-3 ovarian
  GI50: 7320 nM
  TGI: 98900 nM
NCI/ADR-RES ovarian
  GI50: 1150 nM
  TGI: > 100000 nM
786-0 renal
  GI50: 230 nM
  TGI: 509 nM
KM12 colon
  GI50: 276 nM
  TGI: 728 nM
HCT-116 colon
  GI50: 198 nM
  TGI: 421 nM
COLO 205 colon
  GI50: 339 nM
  TGI: 1210 nM
UACC-62 melanoma
  GI50: 1180 nM
  TGI: 4410 nM
HCC-2998 colon
  GI50: 379 nM
  TGI: 1310 nM
U251 CNS
  GI50: 173 nM
  TGI: 351 nM
DU-145 prostate
  GI50: 466 nM
  TGI: 19700 nM
IGROV1 ovarian
  GI50: 344 nM
  TGI: 1290 nM
RXF 393 renal
  GI50: 1050 nM
  TGI: 2680 nM
PC-3 prostate
  GI50: 299 nM
  TGI: 979 nM
SK-MEL-5 melanoma
  GI50: 14500 nM
  TGI: > 100000 nM
M14 melanoma
  GI50: 2770 nM
  TGI: > 100000 nM
MDA-MB-231 breast
  GI50: 469 nM
  TGI: 2670 nM
UACC-257 melanoma
  GI50: 17700 nM
  TGI: > 100000 nM
SK-MEL-2 melanoma
  GI50: 15400 nM
  TGI: > 100000 nM
UO-31 renal
  GI50: 233 nM
  TGI: 675 nM
ACHN renal
  GI50: 717 nM
  TGI: 6880 nM
SNB-19 CNS
  GI50: 496 nM
  TGI: 10800 nM
SW-620 colon
  GI50: 314 nM
  TGI: 2540 nM

— PubChem BioAssay (NCI)
